Converted amounts (≈) assume the structure as drawn.
Tests used:
Type in all cases: functional, cell-based
SNU-354 = assay: In vitro cytotoxic activity against human tumor SNU 354 (liver) cell line
SNU-C4 = assay: In vitro cytotoxic activity against human tumor SNU C-4(colon) cell line
SNU1 = assay: In vitro cytotoxic activity against human tumor SNU 1 (stomach) cell line
[1] = Homo sapiens, SNU-354, read-out: IC50
[2] = Homo sapiens, SNU-C4, read-out: IC50
[3] = Homo sapiens, SNU1, read-out: IC50

Compound	IC50 (SNU-354; [1]) [µg/mL]	IC50 (SNU-C4; [2]) [µg/mL]	IC50 (SNU1; [3]) [µg/mL]	IC50 (SNU-354; snu-354) [µg/mL]	IC50 (SNU-C4; snu-c4) [µg/mL]	IC50 (SNU1; snu1) [µg/mL]
O=C(O)c1c(=O)c2cc(F)c(N3CCNCC3)cc2n2c1oc1ccccc12	19.8 (≈ 51.9 µM)	13.4 (≈ 35.1 µM)	15.3 (≈ 40.1 µM)	–	–	–
CN1CCN(c2cc3c(cc2F)c(=O)c(C(=O)O)c2oc4ccccc4n23)CC1.Cl	1.9	1.8	2	–	–	–
CC(=O)N1CCN(c2cc3c(cc2F)c(=O)c(C(=O)O)c2oc4ccccc4n23)CC1	> 200	> 200	> 200	–	–	–
COc1cccc2c1C(=O)c1c(O)c3c(c(O)c1C2=O)C[C@@](O)(C(=O)CO)C[C@@H]3O[C@H]1C[C@H](N)[C@H](O)[C@H](C)O1 [DOXORUBICIN]	< 0.5	< 0.5	< 0.5	–	–	–
CISPLATIN	–	–	–	4.1	2.8	1.4

— ChEMBL document CHEMBL1128655, “3-Fluoro-2-(4-methylpiperazin-1-yl)-5,12-dihydro-5-oxobenzoxazolo[3,2-a]quinoline-6-carboxylic acid: Synthesis and In vitro cytotoxic activity” (Bioorg Med Chem Lett, 1995)
